Test results taken from patent US11006631B2, “Substituted pyrimidinyloxy pyridine derivatives as herbicides” (FMC Corporation, priority 2015, dated 2021).

Experiments:
Format in all cases: in vivo
kochia (Kochia scoparia) [1] = experiment: Test A postemergence, kochia; settings: 0 to 100 scale
Description: (§1) Seeds of plant species selected from bamyardgrass (Echinochloa crus-galli), kochia (Kochia scoparia), ragweed (common ragweed, Ambrosia elatior), ryegrass, Italian (Italian ryegrass, Lolium multiflorum), foxtail, giant (giant foxtail, Setaria faberii), pigweed (Amaranthus retroflexus), crabgrass, large (large crabgrass, Digitaria sanguinalis), momingglory (Ipomoea spp.), velvetleaf (Abutilon theophrasti), wheat (Triticum aestivum), and corn (Zea mays) were planted into a blend of loam soil and sand and treated preemergence with a directed soil spray using test chemicals formulated in a non-phytotoxic solvent mixture which included a surfactant. At the same time, plants selected from these crop and weed species and also blackgrass (Alopecurus myosuroides), and galium (catchweed bedstraw, Galium aparine) were planted in pots containing the same blend of loam soil and sand and treated with postemergence applications of test chemicals formulated in the same manner. Plants ranged in height from 2 to 10 cm and were in the one- to two-leaf stage for the postemergence treatment. Treated plants and untreated controls were maintained in a greenhouse for approximately 10 days, after which time all treated plants were compared to untreated controls and visually evaluated for injury. Plant response ratings, summarized in Table A, are based on a 0 to 100 scale where 0 is no effect and 100 is complete control. A dash (-) response means no test result.

[2] = test system: barnyardgrass (Echinochloa crus-galli); experiment: Test A postemergence, barnyardgrass; settings: 0 to 100 scale
Description: as §1

[3] = test system: foxtail, giant (giant foxtail, Setaria faberii); experiment: Test A postemergence, foxtail, giant; settings: 0 to 100 scale
Description: as §1

[4] = test system: ragweed (common ragweed, Ambrosia elatior); experiment: Test A preemergence, ragweed; settings: 0 to 100 scale
Description: as §1

corn (Zea mays) = experiment: Test A postemergence, corn; settings: 0 to 100 scale
Description: as §1

[5] = test system: barnyardgrass (Echinochloa crus-galli); experiment: Test B flooded paddy test, barnyardgrass; settings: Flood, 250 g ai/ha; scale of 0 to 100
Method: (§2) Plant species in the flooded paddy test selected from rice (Oryza sativa), sedge, umbrella (small-flower umbrella sedge, Cyperus difformis), ducksalad (Heteranthera limosa), and barnyardgrass (Echinochloa crus-galli) were grown to the 2-leaf stage for testing. At time of treatment, test pots were flooded to 3 cm above the soil surface, treated by application of test compounds directly to the paddy water, and then maintained at that water depth for the duration of the test. Treated plants and controls were maintained in a greenhouse for 13 to 15 days, after which time all species were compared to controls and visually evaluated. Plant response ratings, summarized in Table B, are based on a scale of 0 to 100 where 0 is no effect and 100 is complete control. A dash (-) response means no test result.

[6] = test system: sedge, umbrella (small-flower umbrella sedge, Cyperus difformis); experiment: Test B flooded paddy test, sedge, umbrella; settings: Flood, 250 g ai/ha; scale of 0 to 100
Method: as §2

[7] = test system: foxtail, giant (giant foxtail, Setaria faberii); experiment: Test A preemergence, foxtail, giant; settings: 0 to 100 scale
Description: as §1

kochia (Kochia scoparia) [8] = experiment: Test A preemergence, kochia; settings: 0 to 100 scale
Description: as §1

[9] = test system: pigweed (Amaranthus retroflexus); experiment: Test A postemergence, pigweed; settings: 0 to 100 scale
Description: as §1

[10] = test system: ryegrass, Italian (Italian ryegrass, Lolium multiflorum); experiment: Test A preemergence, ryegrass, Italian; settings: 0 to 100 scale
Description: as §1

[11] = test system: blackgrass (Alopecurus myosuroides); experiment: Test A postemergence, blackgrass; settings: 0 to 100 scale
Description: as §1

[12] = test system: galium (catchweed bedstraw, Galium aparine); experiment: Test A postemergence, galium; settings: 0 to 100 scale
Description: as §1

rice (Oryza sativa) = experiment: Test B flooded paddy test, rice; settings: Flood, 250 g ai/ha; scale of 0 to 100
Method: as §2

[13] = test system: ryegrass, Italian (Italian ryegrass, Lolium multiflorum); experiment: Test A postemergence, ryegrass, Italian; settings: 0 to 100 scale
Description: as §1

[14] = test system: barnyardgrass (Echinochloa crus-galli); experiment: Test A preemergence, barnyardgrass; settings: 0 to 100 scale
Description: as §1

[15] = test system: pigweed (Amaranthus retroflexus); experiment: Test A preemergence, pigweed; settings: 0 to 100 scale
Description: as §1

[16] = test system: ragweed (common ragweed, Ambrosia elatior); experiment: Test A postemergence, ragweed; settings: 0 to 100 scale
Description: as §1

[17] = test system: ducksalad (Heteranthera limosa); experiment: Test B flooded paddy test, ducksalad; settings: Flood, 250 g ai/ha; scale of 0 to 100
Method: as §2

[18] = test system: wheat (Triticum aestivum); experiment: Test A postemergence, wheat; settings: 0 to 100 scale
Description: as §1

Compound: [O-][n+]1cccc(Oc2ncc(F)cn2)c1-n1cc(Cl)cn1 [Compound 9]
- Plant response rating, Kochia (kochia (Kochia scoparia) [1]; 31 g ai/ha): 10
- Plant response rating, Kochia (kochia (Kochia scoparia) [1]; 125 g ai/ha): 50
- Plant response rating, Barnyardgrass ([2]; 31 g ai/ha): 0
- Plant response rating, Barnyardgrass ([2]; 125 g ai/ha): 0
- Plant response rating, Foxtail, Giant ([3]; 31 g ai/ha): 0
- Plant response rating, Foxtail, Giant ([3]; 125 g ai/ha): 0
- Plant response rating, Ragweed ([4]; 31 g ai/ha): 0
- Plant response rating, Ragweed ([4]; 125 g ai/ha): 0
- Plant response rating, Corn (corn (Zea mays); 31 g ai/ha): 0
- Plant response rating, Corn (corn (Zea mays); 125 g ai/ha): 0
- Plant response rating, Barnyardgrass [5]: 0
- Plant response rating, Sedge, Umbrella [6]: 0
- Plant response rating, Foxtail, Giant ([7]; 31 g ai/ha): 0
- Plant response rating, Foxtail, Giant ([7]; 125 g ai/ha): 0
- Plant response rating, Kochia (kochia (Kochia scoparia) [8]; 31 g ai/ha): 0
- Plant response rating, Kochia (kochia (Kochia scoparia) [8]; 125 g ai/ha): 0
- Plant response rating, Pigweed ([9]; 31 g ai/ha): 30
- Plant response rating, Pigweed ([9]; 125 g ai/ha): 50
- Plant response rating, Ryegrass, Italian ([10]; 31 g ai/ha): 0
- Plant response rating, Ryegrass, Italian ([10]; 125 g ai/ha): 0
- Plant response rating, Blackgrass ([11]; 31 g ai/ha): 0
- Plant response rating, Blackgrass ([11]; 125 g ai/ha): 0
- Plant response rating, Galium ([12]; 31 g ai/ha): 10
- Plant response rating, Galium ([12]; 125 g ai/ha): 30
- Plant response rating, Rice (rice (Oryza sativa)): 0
- Plant response rating, Ryegrass, Italian ([13]; 31 g ai/ha): 0
- Plant response rating, Ryegrass, Italian ([13]; 125 g ai/ha): 0
- Plant response rating, Barnyardgrass ([14]; 31 g ai/ha): 0
- Plant response rating, Barnyardgrass ([14]; 125 g ai/ha): 0
- Plant response rating, Pigweed ([15]; 31 g ai/ha): 0
- Plant response rating, Pigweed ([15]; 125 g ai/ha): 20
- Plant response rating, Ragweed ([16]; 31 g ai/ha): 10
- Plant response rating, Ragweed ([16]; 125 g ai/ha): 30
- Plant response rating, Ducksalad [17]: 0
- Plant response rating, Wheat ([18]; 31 g ai/ha): 0
- Plant response rating, Wheat ([18]; 125 g ai/ha): 0

Compound: Cc1cnc(-n2ccc(C(F)(F)F)n2)c(Oc2ncc(Cl)cn2)c1 [Compound 13]
- Plant response rating, Kochia (kochia (Kochia scoparia) [1]; 31 g ai/ha): 0
- Plant response rating, Kochia (kochia (Kochia scoparia) [1]; 125 g ai/ha): 0
- Plant response rating, Barnyardgrass ([2]; 31 g ai/ha): 0
- Plant response rating, Barnyardgrass ([2]; 125 g ai/ha): 0
- Plant response rating, Foxtail, Giant ([3]; 31 g ai/ha): 0
- Plant response rating, Foxtail, Giant ([3]; 125 g ai/ha): 0
- Plant response rating, Ragweed ([4]; 31 g ai/ha): 0
- Plant response rating, Ragweed ([4]; 125 g ai/ha): 0
- Plant response rating, Corn (corn (Zea mays); 31 g ai/ha): 0
- Plant response rating, Corn (corn (Zea mays); 125 g ai/ha): 0
- Plant response rating, Barnyardgrass [5]: 0
- Plant response rating, Sedge, Umbrella [6]: 0
- Plant response rating, Foxtail, Giant ([7]; 31 g ai/ha): 0
- Plant response rating, Foxtail, Giant ([7]; 125 g ai/ha): 0
- Plant response rating, Kochia (kochia (Kochia scoparia) [8]; 31 g ai/ha): 0
- Plant response rating, Kochia (kochia (Kochia scoparia) [8]; 125 g ai/ha): 0
- Plant response rating, Pigweed ([9]; 31 g ai/ha): 0
- Plant response rating, Pigweed ([9]; 125 g ai/ha): 0
- Plant response rating, Ryegrass, Italian ([10]; 31 g ai/ha): 0
- Plant response rating, Ryegrass, Italian ([10]; 125 g ai/ha): 0
- Plant response rating, Blackgrass ([11]; 31 g ai/ha): 0
- Plant response rating, Blackgrass ([11]; 125 g ai/ha): 0
- Plant response rating, Galium ([12]; 31 g ai/ha): 0
- Plant response rating, Galium ([12]; 125 g ai/ha): 0
- Plant response rating, Rice (rice (Oryza sativa)): 0
- Plant response rating, Ryegrass, Italian ([13]; 31 g ai/ha): 0
- Plant response rating, Ryegrass, Italian ([13]; 125 g ai/ha): 0
- Plant response rating, Barnyardgrass ([14]; 31 g ai/ha): 0
- Plant response rating, Barnyardgrass ([14]; 125 g ai/ha): 0
- Plant response rating, Pigweed ([15]; 31 g ai/ha): 0
- Plant response rating, Pigweed ([15]; 125 g ai/ha): 0
- Plant response rating, Ragweed ([16]; 31 g ai/ha): 0
- Plant response rating, Ragweed ([16]; 125 g ai/ha): 0
- Plant response rating, Ducksalad [17]: 0
- Plant response rating, Wheat ([18]; 31 g ai/ha): 0
- Plant response rating, Wheat ([18]; 125 g ai/ha): 0

Compound: [O-][n+]1cccc(Oc2ncc(Cl)cn2)c1-n1cc(Br)cn1 [Compound 11]
- Plant response rating, Kochia (kochia (Kochia scoparia) [1]; 1000 g ai/ha): 60
- Plant response rating, Barnyardgrass ([2]; 1000 g ai/ha): 0
- Plant response rating, Foxtail, Giant ([3]; 1000 g ai/ha): 0
- Plant response rating, Ragweed ([4]; 1000 g ai/ha): 30
- Plant response rating, Corn (corn (Zea mays); 1000 g ai/ha): 0
- Plant response rating, Foxtail, Giant ([7]; 1000 g ai/ha): 0
- Plant response rating, Kochia (kochia (Kochia scoparia) [8]; 1000 g ai/ha): 30
- Plant response rating, Pigweed ([9]; 1000 g ai/ha): 90
- Plant response rating, Ryegrass, Italian ([10]; 1000 g ai/ha): 0
- Plant response rating, Blackgrass ([11]; 1000 g ai/ha): 10
- Plant response rating, Galium ([12]; 1000 g ai/ha): 40
- Plant response rating, Ryegrass, Italian ([13]; 1000 g ai/ha): 0
- Plant response rating, Barnyardgrass ([14]; 1000 g ai/ha): 0
- Plant response rating, Pigweed ([15]; 1000 g ai/ha): 100
- Plant response rating, Ragweed ([16]; 1000 g ai/ha): 20
- Plant response rating, Wheat ([18]; 1000 g ai/ha): 0

Compound: FC(F)c1cc(-c2ncccc2Oc2ncc(Cl)cn2)no1 [Compound 6, 5-chloro-2-[[2-[5-(difluoromethyl)-3-isoxazolyl]-3-pyridinyl]oxy]pyrimidine]
- Plant response rating, Kochia (kochia (Kochia scoparia) [1]; 31 g ai/ha): 90
- Plant response rating, Kochia (kochia (Kochia scoparia) [1]; 125 g ai/ha): 100
- Plant response rating, Barnyardgrass ([2]; 31 g ai/ha): 10
- Plant response rating, Barnyardgrass ([2]; 125 g ai/ha): 30
- Plant response rating, Foxtail, Giant ([3]; 31 g ai/ha): 20
- Plant response rating, Foxtail, Giant ([3]; 125 g ai/ha): 40
- Plant response rating, Ragweed ([4]; 31 g ai/ha): 0
- Plant response rating, Ragweed ([4]; 125 g ai/ha): 50
- Plant response rating, Corn (corn (Zea mays); 31 g ai/ha): 20
- Plant response rating, Corn (corn (Zea mays); 125 g ai/ha): 30
- Plant response rating, Barnyardgrass [5]: 0
- Plant response rating, Sedge, Umbrella [6]: 0
- Plant response rating, Foxtail, Giant ([7]; 31 g ai/ha): 0
- Plant response rating, Foxtail, Giant ([7]; 125 g ai/ha): 90
- Plant response rating, Kochia (kochia (Kochia scoparia) [8]; 31 g ai/ha): 60
- Plant response rating, Kochia (kochia (Kochia scoparia) [8]; 125 g ai/ha): 90
- Plant response rating, Pigweed ([9]; 31 g ai/ha): 70
- Plant response rating, Pigweed ([9]; 125 g ai/ha): 100
- Plant response rating, Ryegrass, Italian ([10]; 31 g ai/ha): 0
- Plant response rating, Ryegrass, Italian ([10]; 125 g ai/ha): 0
- Plant response rating, Blackgrass ([11]; 31 g ai/ha): 0
- Plant response rating, Blackgrass ([11]; 125 g ai/ha): 20
- Plant response rating, Galium ([12]; 31 g ai/ha): 50
- Plant response rating, Galium ([12]; 125 g ai/ha): 70
- Plant response rating, Rice (rice (Oryza sativa)): 0
- Plant response rating, Ryegrass, Italian ([13]; 31 g ai/ha): 0
- Plant response rating, Ryegrass, Italian ([13]; 125 g ai/ha): 10
- Plant response rating, Barnyardgrass ([14]; 31 g ai/ha): 0
- Plant response rating, Barnyardgrass ([14]; 125 g ai/ha): 70
- Plant response rating, Pigweed ([15]; 31 g ai/ha): 90
- Plant response rating, Pigweed ([15]; 125 g ai/ha): 100
- Plant response rating, Ragweed ([16]; 31 g ai/ha): 20
- Plant response rating, Ragweed ([16]; 125 g ai/ha): 40
- Plant response rating, Ducksalad [17]: 30
- Plant response rating, Wheat ([18]; 31 g ai/ha): 20
- Plant response rating, Wheat ([18]; 125 g ai/ha): 30
